The subject of this assay is amyloid precursor protein (APP) proteolysis. As to the kind of experiment: Repressor Release Assay (RRA). In kind it is cell-based. The note with it: luciferase activity over diluent control. On the procedure: The beta amyloid inhibitory activity of many of the compounds of the present invention has been determined using the Repressor Release Assay (RRA). See, Table 23 below. A compound is considered active in RRA if it leads to at least a 1.5 fold increase in luciferase activity at 20 μM and is non-toxic.
The compounds generated as described in Examples 1 through 220 were tested in the RRA in accordance with published techniques [Shuey, D. J., Sheiffele, P., Jones, D., Cockett, M. I., and Quinet, E. M. (1999), “Repressor release: a useful tool for monitoring amyloid precursor protein (APP) proteolysis in mammalian cells”, Society for Neuroscience Abstracts, Vol. 25, 29th Annual Meeting of Society for Neuroscience, Miami Beach, Fla., Oct. 23-28, 1999]. Briefly, this assay is performed as follows.
CHO-K1 cells are cultured in whole DMEM media (DMEM—High Glucose with 10% fetal bovine serum, 1% Non-essential Amino Acids, and 1% Penicillin-Streptomycin) at 37° C. with 5% CO2. Two million cells are plated into 10-cm dishes 24 hrs prior to transfection.
Transient transfections are completed as recommended by Gibco BRL using their Lipofectamine Plus system. First, 6 μg of pRSVO-luc and 6 μg of APP-lacI construct DNA are added to 460 μL Opti-Mem transfection media and incubated with 30 μL Plus reagent for 15 minutes. Then, a lipid mixture of 40 μL Lipofectamine reagent and 460 μL Opti-Mem transfection media is incubated with the DNA-Plus reagent mixture for 15 minutes. During the DNA-lipid incubation, the CHO-K1 cells are washed once and covered in 5.0 mL DMEM media without Penicillin-Streptomycin. The DNA-lipid preparation is then layered onto these cells and incubated at 37° C. overnight.
One and one half million transfected cells per well (100 μL total volume) are plated into sterile, opaque Packard 96-well Cultur-Plates in clear DMEM whole media (DMEM—without phenol red) and incubated at 37° C. with 5% CO2 for 3-5 hours.
Compounds are diluted using two different protocols; one protocol is used for compounds supplied neat (weighed powder in vial) and the other protocol is used for compounds supplied in solution (20 mM in DMSO in 96-well plates). For both protocols, 25 mM Hepes and 25 mM Hepes/1% DMSO are prepared fresh to be used as diluent. The Hepes/DMSO is used as the diluent control on all experimental plates.
The following table depicts the steps for compound dilution (please note that the last step is the addition of compound to cells/media in tissue culture plate):
Because some compounds arrive in 96-well format at 20 mM, the following represents the protocol for their dilution (note that an average molecular weight of these compounds was used to calculate these dilutions and as above, the last step is the addition of compound to cells/media in tissue culture plate):
Once compounds are diluted, they are applied in duplicate on cells in tissue culture plates (prepared above). Cells are incubated with compound at 37° C. with 5% CO2 for an additional 36-48 hours.
Luciferase assays (LucLite reagent, Packard) are performed and are read on a Packard TopCount instrument. Media is removed from each 96-well plate and replaced with 100 μL PBS per well (with Mg^2+ and Ca^2+). An equal volume (100 μL) of the LucLite lysis/substrate buffer is added to each well and the plates are sealed and mixed in the dark on a rotary shaker for 15-30 minutes at room temperature. Luciferase readings are then taken on the TopCount instrument. Measurements are expressed as relative light units (RLU) and are calculated and analyzed in MS Excel as follows.
A compound is considered active in RRA if it leads to at least a 1.5 fold increase in luciferase activity at 20 μM and is non-toxic, as determined by loss of signal (≦0.75 fold increase). Fold increase is the amount of luciferase activity (measured in relative light units) over diluent control. SEM represents the standard error of the mean for fold increase (not shown).

The mark [1] stands for this setting: Conc 10 μg/mL, read-out: APPI Fold Increase.
Where [2] appears, read: Conc 20 μg/mL, read-out: APPI Fold Increase.

“And” between values parts separate entries of the source, which are not always exact repeats. Equal values may be shown once.

On to `CC=C(C)C(O)C(NS(=O)(=O)c1ccc(Cl)s1)C(C)CC` (mixture of isomers) [Example 135], for which, under “Conc 10 μg/mL”, the “APPI Fold Increase” value is 1.93 fold and 1.75 fold.

On to `CCCCC(O)[C@@H](NS(=O)(=O)c1cccs1)[C@@H](C)CC` (stereo partly drawn) [Example 143, N-{(S)-2-hydroxy-1-[(S)-1-methylpropyl]hexyl}thiophene-2-sulfonamide], for which the fold induction at 10 µg/mL under setting [1] was found to be 1.64.

As to `CCC[C@H](c1ccc(OC)cc1)[C@@H](CO)NS(=O)(=O)c1ccc(Cl)s1` [Example 36, 5-chloro-N-[(1S,2R)-1-(hydroxymethyl)-2-(4-methoxyphenyl)pentyl]thiophene-2-sulfonamide], the fold induction at 20 µg/mL under setting [2] was 3.8.

For the compound `CC(c1ccccc1)C(CO)NS(=O)(=O)c1ccc(Cl)s1` (mixture of isomers) [Example 14], the “APPI Fold Increase” value reads like this: (Conc 3 μg/mL) 1.87 fold and 3.33 fold; (Conc 10 μg/mL) 3.45 fold.

As to `CC[C@H](C)[C@@H](CO)NS(=O)(=O)c1ccco1` [Example 206, N-[(1S,2S)-1-(hydroxymethyl)-2-methylbutyl]-2-furansulfonamide], the fold induction at 20 µg/mL under setting [2] is 1.8.

In the case of `O=S(=O)(NC1(CO)CCCC1)c1ccc(Br)s1` [Example 109], the “APPI Fold Increase” value is, setting by setting: (Conc 3 μg/mL) 1.8 fold; (Conc 10 μg/mL) 2 fold.

Regarding `CCC[C@H](CC)[C@@H](CO)NS(=O)(=O)c1ccc(Cl)s1` [Example 34, 5-chloro-N-[(1S,2S)-2-ethyl-1-(hydroxymethyl)pentyl]thiophene-2-sulfonamide], under setting [2], the fold induction at 20 µg/mL was determined as 5.9.

Turning to `CC[C@H](C)[C@@H](CO)NS(=O)(=O)c1cc(Br)c(Cl)s1` [Example 3], the “APPI Fold Increase” value (Conc 10 μg/mL) stood at 1 fold.

`O=S(=O)(N[C@H](CO)C1CCC(N2CCOCC2)CC1)c1ccc(Cl)s1` (stereo partly drawn) [Example 217, 5-chloro-N-[(S)-2-hydroxy-1-(4-morpholinocyclohexyl)ethyl]thiophene-2-sulfonamide]: the fold induction at 20 µg/mL under setting [2] was 1.8.

Turning to `CC[C@H](C)[C@H](NS(=O)(=O)c1ccc(Br)s1)C(O)(CC)CC` [Example 173, 5-bromo-N-{(S)-2-ethyl-2-hydroxy-1-[(S)-1-methylpropyl]butyl}thiophene-2-sulfonamide], the fold induction at 10 µg/mL under setting [1] came to 1.5.

On to `C=CC(O)[C@@H](NS(=O)(=O)c1cccs1)[C@@H](C)CC` (stereo partly drawn) [Example 146, N-{(S)-2-hydroxy-1-[(S)-1-methylpropyl]but-3-enyl}thiophene-2-sulfonamide], for which the fold induction at 10 µg/mL under setting [1] turned out to be 1.83.

Turning to `CCCCC[C@H](CC(C)C)[C@@H](CO)NS(=O)(=O)c1ccc(Br)s1` [Example 63, 5-bromo-N-[(1S,2R)-1-(hydroxymethyl)-2-isobutylheptyl]thiophene-2-sulfonamide], the fold induction at 20 µg/mL under setting [2] was 3.3.

On to `CCCCC(CO)NS(=O)(=O)c1ccc(Br)s1` (racemic) [Example 106, 5-bromo-N-[1-(hydroxymethyl)pentyl]thiophene-2-sulfonamide], for which, under setting [2], the fold induction at 20 µg/mL is 2.4.

Consider `C=CCOC1CCC([C@@H](CO)NS(=O)(=O)c2ccc(Cl)s2)CC1` (stereo partly drawn) [Example 201, N-{(S)-1-[4-(allyloxy)cyclohexyl]-2-hydroxyethyl}-5-chlorothiophene-2-sulfonamide], for which the fold induction at 20 µg/mL under setting [2] was 2.2.

As to `C=CCCC(O)(CCC=C)[C@@H](NS(=O)(=O)c1ccc(Br)s1)[C@@H](C)CC` [Example 176, 5-bromo-N-{(S)-2-but-3-enyl-2-hydroxy-1-[(S)-1-methylpropyl]hex-5-enyl}thiophene-2-sulfonamide], the fold induction at 10 µg/mL under setting [1] came out at 1.52.

For the compound `CCC(NCc1ccccc1)[C@@H](CO)NS(=O)(=O)c1ccc(Cl)s1` (stereo partly drawn) [Example 85, N-[(1S)-2-(benzylamino)-1-(hydroxymethyl)butyl]-5-chloro-2-thiophenesulfonamide], the fold induction at 20 µg/mL under setting [2] stood at 8.9.

For `C=CCC(O)(CC=C)[C@@H](NS(=O)(=O)c1ccc(Cl)s1)[C@@H](C)CC` [Example 165, N-{(S)-2-allyl-2-hydroxy-1-[(S)-1-methylpropyl]pent-4-enyl}-5-chlorothiophene-2-sulfonamide], the fold induction at 10 µg/mL under setting [1] was determined as 1.73.

`CC(C)C[C@@H](C(C)C)[C@@H](CO)NS(=O)(=O)c1ccc(Br)s1` [Example 75, 5-bromo-N-[(1S,2S)-1-(hydroxymethyl)-2-isopropyl-4-methylpentyl]thiophene-2-sulfonamide]: the fold induction at 20 µg/mL under setting [2] came to 4.7.

As for `CC(NC1CCCC1)[C@@H](CO)NS(=O)(=O)c1ccc(Cl)s1` (stereo partly drawn) [Example 86, 5-chloro-N-[(1S)-2-(cyclopentylamino)-1-(hydroxymethyl)propyl]-2-thiophenesulfonamide], the fold induction at 20 µg/mL under setting [2] was 20.

For the compound `CC(C)C[C@@H](C)[C@@H](CO)NS(=O)(=O)c1ccc(Cl)s1` [Example 27, 5-Chloro-N-[(1S,2R)-1-(hydroxymethyl)-2,4-dimethylpentyl]thiophene-2-sulfonamide], under setting [2], the fold induction at 20 µg/mL came to 8.7.

Take `CC(C)(CO)NS(=O)(=O)c1ccc(Br)s1` [Example 107, 5-bromo-N-(2-hydroxy-1,1-dimethylethyl)thiophene-2-sulfonamide]: the fold induction at 20 µg/mL under setting [2] was found to be 1.5.

As to “5-chloro-N-{(S,S)-1-[(S)-1-hydroxyethyl]-2-methylbutyl}thiophene-2-sulfonamide [Example 184]”, the “APPI Fold Increase” value (Conc 20 μg/mL) was 3.7 fold and 2.7 fold.

`CCCCCC(O)(CCCCC)[C@@H](NS(=O)(=O)c1ccc(Cl)s1)[C@@H](C)CC` [Example 163, 5-chloro-N-{(S)-2-hydroxy-1-[(S)-1-methylpropyl]-2-pentylheptyl}thiophene-2-sulfonamide]: the fold induction at 10 µg/mL under setting [1] came to 3.3.

Turning to `CCCCC[C@H](CC)[C@@H](CO)NS(=O)(=O)c1ccc(Cl)s1` [Example 41, 5-chloro-N-[(1S,2S)-2-ethyl-1-(hydroxymethyl)heptyl]thiophene-2-sulfonamide], under setting [2], the fold induction at 20 µg/mL was 4.7.

Take `CC[C@H](C)[C@H](NS(=O)(=O)c1ccc(Cl)s1)C(O)c1ccc(SC)cc1` (stereo partly drawn) [Example 138, 5-chloro-N-((S,S)-1-{hydroxy[4-(methylthio)phenyl]methyl}-2-methylbutyl)thiophene-2-sulfonamide]: under setting [1], the fold induction at 10 µg/mL was found to be 3.54.

With `CC[C@H](C)[C@@H](CO)NS(=O)(=O)C1=CC=C(Br)S1(=O)=O` [Example 18, 5-Bromo-N-[(1S,2S)-1-(hydroxymethyl)-2-methylbutyl]thiophene-2-sulfonamide 1,1-dioxide], the fold induction at 3 µg/mL (Conc 3 μg/mL, read-out: APPI Fold Increase) came out at 2.19. In addition, the fold induction at 10 µg/mL under setting [1] turned out to be 5.23. Further, under setting [2], the fold induction at 20 µg/mL came out at 5.7.

Consider `CC[C@H](C)[C@@H](CO)NS(=O)(=O)c1ccc(Cl)s1` [Example 4], for which the “APPI Fold Increase” value (Conc 1 μg/mL) was found to be 2.22 fold; the “APPI Fold Increase” value (Conc 3 μg/mL) was 2.98 fold and 3.52 fold; the “APPI Fold Increase” value (Conc 10 μg/mL) is 3.3 fold and 5.03 fold; the “APPI Fold Increase” value (Conc 20 μg/mL) is 4 fold and 5.4 fold and 3.3 fold and 5.1 fold.

Take `CC[C@@H](C(C)C)[C@@H](CO)NS(=O)(=O)c1ccc(Br)s1` [Example 74, 5-bromo-N-[(1S,2S)-2-ethyl-1-(hydroxymethyl)-3-methylbutyl]thiophene-2-sulfonamide]: the fold induction at 20 µg/mL under setting [2] was found to be 5.1.

On to `CCC(NC)[C@@H](CO)NS(=O)(=O)c1ccc(Cl)s1` (stereo partly drawn) [Example 79, 5-Chloro-N-[(1S)-1-(hydroxymethyl)-2-(methylamino)butyl]thiophene-2-sulfonamide], for which, under setting [2], the fold induction at 20 µg/mL is 1.6.

For the origin of these results see patent publication US6878742B2, “Heterocyclic sulfonamide inhibitors of beta amyloid production” (Wyeth, priority 2000, dated 2005).
